Reference: patent publication US20170202939A1, “PERSONALIZED CANCER VACCINES AND METHODS THEREFOR” (Washington University, priority 2014, published 2017)
No end group written: not given here.

System: neoantigen-specific T cells
Assay: cytokine production by neoantigen-specific T cells (MILLIPLEX / IFN-γ ELISA)
Type: cell-based, human
Details: upon antigen stimulation, supernatants at 24 h
Protocol: For analysis of cytokines secreted by T cells upon SCT activation, cultures were activated 14 d after SCT or AT-SCT stimulation, T cells were restimulated with SCT at 1:1 ratio in RPMI 1640 supplemented with 5% pooled human sera (RPMI-5), supernatants were collected 24 h after activation and characterized using a MILLIPLEX® cytokine kit (Millipore, Billerica, Mass.), per the manufacturer's instructions.
For functional characterization, neoantigen-specific T cell lines were generated using autologous mDC and antigen loaded artificial antigen presenting cells at a ratio of 1:1 as previously described (Carreno, B. M., et al., J. Immunol., 188, 5839-5849, 2012). […] For production of cytokines, neoantigen-specific T cells were restimulated using artificial antigen presenting cells in the presence or absence of peptide, supernatants collected at 24 h and cytokine produced determined using MILLIPLEX® MAP Human Cytokine Panel I (EMD Millipore).
Substantial evidence supports the hypothesis that Th2/Tc2 immune polarization correlates with worse disease outcome in patients with cancer (Fridman, W. H., et al., Nat. Rev. Cancer, 12, 298-306, 2012). […] Thus, we determined production of cytokines upon antigen stimulation as described above. […] Cytokine production was determined using a multi-plex bead assay. […]

| Sequence | cytokine phenotype of neoantigen-specific T cells (IFN-γ relative to IL-4, IL-5, IL-13) |
| --- | --- |
| CLNEYHLFL | mixed phenotype |
| KLMNIQQKL | Tc1 phenotype |
